Experimental data published in ChEMBL document CHEMBL1155406, “Synthesis and chain-dependent antifungal activity of long-chain 2H-azirine-carboxylate esters related to dysidazirine” (Bioorg Med Chem Lett, 2010).
Activity calls are given as the source filed them. The rule behind the calls is not given here.

What was measured:
Candida albicans [1] = assay: Antifungal activity against fluconazole-resistant Candida albicans UCD-FRI by broth microdilution method; format: functional, organism-based
Pichia kudriavzevii [2] = assay: Antifungal activity against fluconazole-resistant Candida krusei at 64 ug by broth microdilution method; format: functional, organism-based
Candida albicans [3] = assay: Antifungal activity against fluconazole-resistant Candida albicans UCD-FRI at 64 ug by broth microdilution method; format: functional, organism-based
HCT-116 = assay: Cytotoxicity against human HCT116 cells; format: cell-based
Cryptococcus gattii [4] = assay: Antifungal activity against Cryptococcus neoformans var. gatti at 64 ug by broth microdilution method; format: functional, organism-based; conditions: Cryptococcus bacillisporus
Nakaseomyces glabratus [5] = assay: Antifungal activity against Candida glabrata at 64 ug by broth microdilution method; format: functional, organism-based
Cryptococcus neoformans [6] = assay: Antifungal activity against Cryptococcus neoformans var. grubii at 64 ug by broth microdilution method; format: functional, organism-based
Candida albicans [7] = assay: Antifungal activity against Candida albicans ATCC 14503 at 64 ug by broth microdilution method; format: functional, organism-based
Candida albicans [8] = assay: Antifungal activity against fluconazole-resistant Candida albicans 96-489 at 64 ug by broth microdilution method; format: functional, organism-based
Cryptococcus gattii [9] = assay: Antifungal activity against Cryptococcus neoformans var. gatti by broth microdilution method; format: functional, organism-based; conditions: Cryptococcus bacillisporus
Candida albicans [10] = assay: Antifungal activity against Candida albicans ATCC 14503 by broth microdilution method; format: functional, organism-based
Nakaseomyces glabratus [11] = assay: Antifungal activity against Candida glabrata by broth microdilution method; format: functional
Candida albicans [12] = assay: Antifungal activity against fluconazole-resistant Candida albicans 96-489 by broth microdilution method; format: functional, organism-based
Cryptococcus neoformans [13] = assay: Antifungal activity against Cryptococcus neoformans var. grubii by broth microdilution method; format: functional, organism-based
Pichia kudriavzevii [14] = assay: Antifungal activity against fluconazole-resistant Candida krusei by broth microdilution method; format: functional, organism-based

SMILES	Activity (Candida albicans [1])	Activity (Pichia kudriavzevii [2])	Activity (Candida albicans [3])	Activity (HCT-116)	Activity (Cryptococcus gattii [4])	Activity (Nakaseomyces glabratus [5])	Activity (Cryptococcus neoformans [6])	Activity (Candida albicans [7])	Activity (Candida albicans [8])	Activity (Cryptococcus gattii [9])	Activity (Candida albicans [10])	Activity (Nakaseomyces glabratus [11])	Activity (Candida albicans [12])	Activity (Cryptococcus neoformans [13])	Activity (Pichia kudriavzevii [14])
CCCCC/C=C\C1=N[C@H]1C(=O)OC	inactive														
COC(=O)[C@H]1N=C1/C=C/CCCCCCCCC/C=C(/Cl)Br		inactive	inactive	Active	inactive	inactive	inactive	inactive	inactive						
COC(=O)[C@H]1N=C1/C=C/CCCCCCCCCC=C(Br)Br		inactive	inactive	Active	inactive	inactive	inactive	inactive	inactive						
COC(=O)[C@@H]1N=C1/C=C\CCCCCCCCCCCC(C)(C)C		inactive	inactive		inactive	inactive	inactive	inactive	inactive						
CCCCCCCCCCCCCCCC1=N[C@H]1C(=O)OC		inactive	inactive		inactive	inactive	inactive	inactive	inactive						
CCCCCCCCCCCCCC#CC1=N[C@H]1C(=O)OC	Active									Active	Active	Active	Active	Active	Active
COC(=O)[C@H]1N=C1/C=C\CCCCCCCCC/C=C(/Cl)Br		inactive	inactive	Active	inactive	inactive	inactive	inactive	inactive						
COC(=O)[C@H]1N=C1/C=C\CCCCCCCCCC=C(Br)Br		inactive	inactive	Active	inactive	inactive	inactive	inactive	inactive						
CCCCCCCCCC/C=C\C1=N[C@H]1C(=O)OC	Active									Active	Active	Active	Active	Active	Active
CCCCCCCCCCCCC/C=C/[C@@H](O)[C@@H](N)CO [SPHINGOSINE]												30 µg/mL			
COC(=O)[C@H]1N=C1/C=C/CCCCCCCCCC=C(Cl)Cl		inactive	inactive	Active	inactive	inactive	inactive	inactive	inactive						
